Reference: patent publication US6846845B2, “Heat shock protein inducer” (Eisai Co., Ltd., priority 2002, dated 2005)

Key:
Format in all cases: in vivo, rat
HSP70 = HSP70 induction in the heart after oral administration (Western blotting), Example 1
Method: Male Sprague-Dawley rats (220-250 g) were anesthetized with pentobarbital (20 mg/kg, i.p.). They were subjected to whole-body hyperthermia by soaking for 10 minutes in a bath in which the water temperature was maintained at 43° C. (Heat Stress Group), with their heads on pillows to avoid aspiration of water. rectal temperatures were measured as body temperatures rose throughout the whole-body hyperthermia.
(§1) An emulsion of 100% by weight of geranylgeranylacetone (GGA) with 5% by weight of gum arabic and 0.008% by weight of tocopherol was given orally to the rats described above. The oral dosages were 50 mg/kg, 100 mg/kg, 200 mg/kg and 400 mg/kg (GGA groups). […] The vehicle was administered orally to the Control Group.
To examine the time-dependent expression of HSP70, rats were killed by deep anesthesia with pentobarbital (50 mg/kg, i.v.) 6, 12, 24 and 48 hours after administration of the GGA or vehicle or 6, 12, 24 and 48 hours after heat stress.
(§2) Next, the hearts were removed from the killed rats and frozen in liquid nitrogen.
(§3) Western blotting was then performed (Maloyan A, Palmon A, Horowitz M. Heat acclimation increases the basal HSP70 level and alters its production dynamics during heat stress. Am J Physiol 1999; 276:R1506-R1515). The frozen hearts were homogenized with SDS (sodium dodecyl sulfate) buffer, centrifuged and boiled.
(§4) The total protein concentration of the myocardium was quantified by the Bradford method (Bradford M M. A rapid and sensitive method for quantitation of microgram quantities of protein utilizing the principle of protein-dye binding. Anal Biochem 1976; 72:248-254). The prepared hearts were then diluted in electrolyte buffer. Total protein in each heart was subjected to electrophoresis on 8.5% SDS-Polyacrylamide gel (SDS-PAGE), and transferred to a PVDF (polyvinylidene fluoride) membrane. After blocking with 0.5% nonfat milk, the PVDF membranes were incubated with antibodies. The proteins were detected by exposing the ECL cells with Hyperfilm (Amersham Pharmacia, Buckinghamshire, UK). Based on this, the amount of proteins on the immunoblots was quantified using National Institutes of Health (NIH) imaging software.

HSP27 = HSP27 induction in the heart after oral administration (Western blotting); settings: oral 200 mg/kg, 24 hours after administration, FIG. 3(A)
Method: as §1, §2, §3
as §4, with “Total protein in each heart was subjected to electrophoresis on 8.5% SDS-Polyacrylamide gel (SDS-PAGE), and transferred to a PVDF (polyvinylidene fluoride) membrane. After blocking with 0.5% nonfat milk, the PVDF membranes were incubated with antibodies.” left out, “software. […]” for “software.”

HSP60 = HSP60 induction in the heart after oral administration (Western blotting); settings: oral 200 mg/kg, 24 hours after administration, FIG. 3(B)
Method: as §1, §2, §3
as §4, with “Total protein in each heart was subjected to electrophoresis on 8.5% SDS-Polyacrylamide gel (SDS-PAGE), and transferred to a PVDF (polyvinylidene fluoride) membrane. After blocking with 0.5% nonfat milk, the PVDF membranes were incubated with antibodies.” left out, “software. […]” for “software.”

thioredoxin = test: Thioredoxin induction in the heart after oral administration (Western blotting); settings: oral 200 mg/kg, 24 hours after administration, FIG. 4(B)
Description: Monoclonal IgG antibody cross-reactive to HSP70, HSP60 and HSP27 antibodies was purchased from Stressgen Biotechnologies Corporation ([…], Canada). Primary antibodies of nitric oxide synthase (NOS) or in other words inducible NOS (iNOS), endothelial NOS (eNOS) and neuronal NOS (nNOS) were purchased from Transduction Laboratories (Lexington, Ky.). The primary antibody of thioredoxin was kindly provided by Professor Yodoi of Kyoto University.
as §1
Next, the hearts were removed from the killed rats and frozen in liquid nitrogen. […]
The total protein concentration of the myocardium was quantified by the Bradford method (Bradford M M. A rapid and sensitive method for quantitation of microgram quantities of protein utilizing the principle of protein-dye binding. Anal Biochem 1976; 72:248-254). […] The proteins were detected by exposing the ECL cells with Hyperfilm (Amersham Pharmacia, Buckinghamshire, UK). Based on this, the amount of proteins on the immunoblots was quantified using National Institutes of Health (NIH) imaging software. […]

isolated perfused heart = test: Isolated perfused heart experiments (Langendorff, no-flow global ischemia/reperfusion), Example 1; settings: for amount of creatine kinase (CK) released during reperfusion versus Control Group: 30 min reperfusion, FIG. 6
Method: As mentioned above, 24 hours after administration of 200 mg/kg of GGA or the vehicle, rats were heparinized (500 IU/kg, i.p.) and anesthetized with pentobarbital (50 mg/kg, i.p.).
Each heart was isolated and reperfused using the Langendorff method with Krebs-Henseleit buffer (pH 7.4, [in mM] 118 NaCl, 4.7 KCl, 2.5 CaCl2, 1.2 MgSO4, 1.2 KH2PO4, 25.0 Na2HCO3, 11.0 glucose) equilibrated with a 95% O2, 5% CO2 gas mixture at 36.5° C., 75 mmHg (1.0×10^4 Pa).
A water-filled latex balloon was inserted through the mitral orifice into the left ventricle, and the left ventricular end diastolic pressure (LVEDP) was adjusted to 0-5 mmHg (0-667 Pa). During the first 10 minutes of constant pressure reperfusion, the perfusion flow rate was determined for each heart, and the hearts were then perfused at a determined perfusion rate using a microtube pump, during which time each heart was covered with water-jacketed glassware and humidity was maintained at 90% or more.
Normothermic no-flow global ischemia was performed for 20, 40 and 60 minutes, followed by reperfusion for 30 minutes. The coronary effluent from the 30-minute reperfusion period was collected for measurement of released creatine kinase (CK). The ratio of released CK to heart weight was analyzed by unpaired t-test.
The peak position and negative first derivaties of left ventricular pressure (dP/dt max and dP/dt min) were monitored using a pressure transducer. Left ventricular developed pressure (LVDP) was defined as the difference between left ventricular systolic and diastolic pressure. Coronary perfusion pressure (CPP) was calculated as the hydraulic pressure measured at the level of aortic cannulation. Changes in LVDP, CPP and dP/dt were analyzed by two-way analysis of variance (ANOVA), followed by the Bonferroni/Dunn test.
The LVDP, CPP and electrocardiogram were continuously recorded on a polygraph recorder (WS-681G, Nihon Koden, Tokyo), and stored on a PCM data recorder (RD-111T, TEAC, Tokyo) for later analysis.

myocardial cells = test: Electron microscope findings in left ventricular papillary muscle after ischemia/reperfusion; settings: GGA-treated rats, 20 min no-flow ischemia and 30 min reperfusion
Method: After 30 minutes of reperfusion […] 20 minutes of no-flow ischemia, the papillary muscle of the left ventricle was immediately removed from the GGA-treated and Control hearts, and cut into small blocks. The tissue blocks were then fixed in a cacodylate buffered (pH 7.4) solution containing 2.5% glutaraldehyde and paraformaldehyde at 4° C. for 2 hours, and postfixed in a cocodylate buffered (pH 7.4) solution containing 2% osmium tetroxide and 0.5% potassium ferrocyanide at 4° C. for 2 hours. The tissue blocks were then dehydrated in ethanol and embedded in epoxy resin. Ultra-thin sections were stained with uranyl acetate and lead cistate, and were viewed under a transmission electron microscope (JOEL-100CX, Tokyo).

[1] = oral, 24 hours after administration, FIG. 2

CC(=O)CCC=C(C)CCC=C(C)CCC=C(C)CCC=C(C)C [GGA, 6, 10, 14, 18-tetramethyl-5,9, 13, 17-nonadecatetraen-2-one]
detected (induced) amount of HSP70 in the heart versus dosage (HSP70; oral 0-400 mg/kg, hearts removed 24 hours after administration, FIG. 2): increased as the dosage increased | detected amount of HSP70 in the heart after 48 hours (HSP70; oral 200 mg/kg, 48 hours after administration, FIG. 1): decreased | time at which the detected (induced) amount of HSP70 peaked (HSP70; oral 200 mg/kg, FIG. 1): 24 h | time from which HSP70 was detected in the heart (HSP70; oral 200 mg/kg, FIG. 1): about 6 hours | detected amount of HSP70 above 400 mg/kg (HSP70; [1]): No increase in detected amount was seen | dosage at which HSP70 induction peaked (HSP70; [1]): 200 mg/kg | HSP27 expression versus vehicle (HSP27): no obvious difference | HSP60 expression versus control group (HSP60): significantly decreased | thioredoxin induction in the heart (thioredoxin): not induced | LVDP and dP/dt during reperfusion versus Control Group (isolated perfused heart; 24 h after oral 200 mg/kg, printed 'after about 20-40 minutes of reperfusion', FIG. 5): remarkably better | functional recovery (LVDP, dP/dt) versus Control Group (isolated perfused heart; 24 h after oral 200 mg/kg, printed 'after about 60 minutes of reperfusion', FIG. 5): no great difference | amount of creatine kinase (CK) released during reperfusion versus Control Group (isolated perfused heart; ischemic period 20 or 40 minutes): much less | amount of creatine kinase (CK) released during reperfusion versus Control Group (isolated perfused heart; ischemic period 60 minutes): no great difference | microstructure of myocardial cells by transmission electron microscopy (myocardial cells): preserved microstructurally
